Measurements: patent US20250114448A1, “SAPONIN-BASED ADJUVANTS AND VACCINES” (ASOCIACIÓN CENTRO DE INVESTIGACIÓN COOPERATIVA EN …, priority 2022, published 2025)

Experiments:
Design in all cases: species or system mice (C57BL/6)
anti-OVA IgG antibodies = experiment: Adjuvant activity: anti-OVA total IgG (ELISA) in sera of mice vaccinated with OVA plus saponin (In Vivo Experiment 1); settings: C75BL6 mice, three subcutaneous injections 10 days apart, OVA 10 μg + saponin 50 μg, endpoint sera day 28, total IgG ELISA
Protocol: Vaccination of mice. In the case of the synthetic saponin adjuvants, groups of five mice (C57BL/6, female, 6-8 weeks old) were vaccinated subcutaneously three times every 10 days (days 0, 11, and 21) with endotoxin-free OVA (EndoFit™ Ovalbumin, Invitrogen) (10 μg/mouse) in phosphate-buffered saline (PBS, 100 μL) either alone (no-adjuvant control group) or with the synthetic saponins (50 μg/mouse). To analyze the antibody responses over time, mice were bled via the submandibular vein at the indicated pre-(day −1) and post-vaccination time points (days 18), and by cardiac puncture at the experimental endpoint (day 28). Blood was collected in BD Microtainer® tubes (Clot Activator/SST™ Gel) and centrifuged at 7500 g for 10 min, after which serum was harvested and stored at −20° C. until further analysis.
Quantification of antibody production. Antibody titers against OVA protein for the saponin adjuvants, or against MUC1 and TnMUC1 antigens in the case of the conjugate constructs were measured by an indirect enzyme-linked immunosorbent assay (ELISA). Briefly, ELISA plates (Thermo Scientific) were coated with endotoxin-free OVA (EndoFit™ Ovalbumin; Invitrogen) or with BSA-MUC1 or BSA-TnMUC1 conjugates at 0.05 μg/well in carbonate buffer (pH 9.5), and plates were incubated overnight at 4° C. After washing the wells (PBS, 10 mM, containing 0.05% Tween 20), plates were blocked with 10% of fetal calf serum (FCS, Biowest) in PBS buffer for 1 h. Serial dilutions of mouse sera in blocking buffer (10% FCS in PBS buffer) were added to the wells with appropriate controls and incubated for 1 h at room temperature. After washing, goat anti-mouse total IgG (Jackson ImmunoResearch) or subclass specific IgG1, IgG2b, IgG2c and IgG3 (SouthernBiotech) antibodies conjugated to horseradish peroxidase (HRP) were added to each well at the dilution indicated by the manufacturer. After 1 h incubation at room temperature, KPL SureBlue Reserve™ commercial solution (100 μL/well, SeraCare) containing 3,3′,5,5′-tetramethylbenzidine (TMB) was added as peroxidase substrate and after incubation for 10 min, the reaction was stopped with 2 N H2SO4 (100 μL/well). Absorbance (OD, 450 nm) was immediately measured using a BioTek® Synergy HT multi-detection microplate reader.
A straightforward proof-of-principle in vivo experiment was carried out to directly compare their adjuvant activities of prior art compound 12 and the compounds of the invention 1 and 2 in terms of IgG antibody production, using chicken ovalbumin (OVA) as a model antigen. […] Endpoint sera after three immunizations were probed via ELISA assays by coating 96-well plates with OVA (0.05 μg/ml) and total IgG optical density (OD) values (at day 28) were measured (FIG. 1).

anti-MUC1 IgG antibodies = experiment: Self-adjuvanting vaccine: anti-MUC1 total IgG (ELISA, BSA-MUC1 coated plates) in sera of immunized mice (In Vivo Experiment 2); settings: C57BL/6 mice, subcutaneous, days 0, 11, 21, dose equimolar to 50 μg of MUC1 per injection, no external adjuvant, endpoint sera day 28, versus pre-sera
Protocol: (§1) Concerning the saponin-antigen conjugates, groups of five mice (C57BL/6, female, 6-8 weeks old) were vaccinated subcutaneously three times every […] (days 0, 11, and 21) with the glycoconjugate constructs (50 μg/mouse) in phosphate-buffered saline (PBS, 100 μl). To determine the antibody responses over time, mice were bled via submandibular vein at the indicated post-vaccination time point (day 18), and by cardiac puncture at the experimental endpoint (day 28). Blood was collected in BD Microtainer® tubes (Clot Activator/SST™ Gel) and centrifuged at 13000 g for 10 min. Sera were harvested and stored at −20° C. until further analysis.
(§2) Quantification of antibody production. Antibody titers against OVA protein for the saponin adjuvants, or against MUC1 and TnMUC1 antigens in the case of the conjugate constructs were measured by an indirect enzyme-linked immunosorbent assay (ELISA). Briefly, ELISA plates (Thermo Scientific) were coated with endotoxin-free OVA (EndoFit™ Ovalbumin; Invitrogen) or with BSA-MUC1 or BSA-TnMUC1 conjugates at 0.05 μg/well in carbonate buffer (pH 9.5), and plates were incubated overnight at 4° C. After washing the wells (PBS, 10 mM, containing 0.05% Tween 20), plates were blocked with 10% of fetal calf serum (FCS, Biowest) in PBS buffer for 1 h. […] Absorbance (OD, 450 nm) was immediately measured using a BioTek® Synergy HT multi-detection microplate reader. […]

[1] = tested on: anti-TnMUC1 IgG antibodies; experiment: Self-adjuvanting vaccine: anti-TnMUC1 total IgG (ELISA, BSA-TnMUC1 coated plates) in sera of immunized mice (In Vivo Experiment 2); settings: C57BL/6 mice, subcutaneous, days 0, 11, 21, dose equimolar to 50 μg of MUC1 per injection, no external adjuvant, endpoint sera day 28, versus pre-sera
Protocol: as §1, §2

Row | Structure (SMILES) | anti-OVA IgG antibody response versus negative control group (OVA alone) (anti-OVA IgG antibodies) | anti-OVA IgG titers compared to those induced by previous EA lead saponin 12 (C3-hydroxyl) (anti-OVA IgG antibodies) | production of total anti-MUC1 IgG antibodies (anti-MUC1 IgG antibodies) | production of total anti-TnMUC1 IgG antibodies [1]
1 | C[C@@H]1O[C@@H](O[C@H]2[C@H](OC(=O)[C@]34CCC(C)(C)C[C@H]3C3=CC[C@@H]5[C@@]6(C)CCC(=O)C(C)(C)[C@@H]6CC[C@@]5(C)[C@]3(C)C[C@H]4O)O[C@H](CO)[C@H](NC(=O)CCCCCCCCCCC(=O)O)[C@@H]2O)[C@H](O)[C@H](O)[C@H]1O[C@@H]1OC[C@@H](O)[C@H](O)[C@H]1O [compound 1] | significantly higher than that of the negative control group | increased | – | –
2 | C[C@@H]1O[C@@H](O[C@H]2[C@H](OC(=O)[C@]34CCC(C)(C)C[C@H]3C3=CC[C@@H]5[C@@]6(C)CC/C(=N/O)C(C)(C)[C@@H]6CC[C@@]5(C)[C@]3(C)C[C@H]4O)O[C@H](CO)[C@H](NC(=O)CCCCCCCCCCC(=O)O)[C@@H]2O)[C@H](O)[C@H](O)[C@H]1O[C@@H]1OC[C@@H](O)[C@H](O)[C@H]1O [compound 2] | significantly higher than that of the negative control group | increased (significantly in the latter case) | – | –
3 | CC[C@H](C)C(NC(=O)[C@H](CCCCN)NC(=O)[C@H](Cc1c[nH]c2ccccc12)NC(=O)[C@@H](NC(=O)[C@H](C)NC(=O)[C@H](Cc1ccccc1)NC(=O)[C@H](CC(C)C)NC(=O)[C@H](CCCCN)CC(=O)NO/N=C1/CCC2(C)C(CCC3(C)C2CC=C2C4CC(C)(C)CC[C@]4(C(=O)O[C@]4([C@@H]5OC(C)[C@H](O[C@@H]6OC[C@@H](O)C(O)C6O)C(O)C5O)OC(CO)[C@H](NC(=O)CCCCCNC(=O)COCCOCCOCC(=O)NCC(=O)N[C@H](C(=O)N[C@H](C(=O)O[C@@H](CO)C(=O)N[C@@H](C)C(=O)N5CCC[C@H]5C(=O)N[C@@H](CC(=O)O)C(=O)N[C@H](C(=O)N[C@@H](CCCNC(=N)N)C(=O)N5CCC[C@H]5C(=O)N[C@@H](C)C(=O)N5CCC[C@H]5C(=O)NCC(=O)N[C@@H](CO)C(=O)N[C@H](C(=O)N[C@@H](C)C(N)=O)C(C)O)C(C)O)C(C)O)C(C)C)C(O)C4O)C(O)CC23C)C1(C)C)C(C)C)C(=O)N[C@H](C(=O)N[C@@H](Cc1ccc(O)cc1)C(=O)N[C@@H](CCCCN)C(=O)N[C@@H](CC(=O)O)C(=O)N[C@H](C(=O)O)[C@@H](C)O)[C@@H](C)O (stereo partly drawn) [compound 10, PV-Echinocystic Acid Saponin-MUC1 Tri-Conjugate] | – | – | high levels | –
4 | CC[C@H](C)C(NC(=O)[C@H](CCCCN)NC(=O)[C@H](Cc1c[nH]c2ccccc12)NC(=O)[C@@H](NC(=O)[C@H](C)NC(=O)[C@H](Cc1ccccc1)NC(=O)[C@H](CC(C)C)NC(=O)[C@H](CCCCN)CC(=O)NO/N=C1/CCC2(C)C(CCC3(C)C2CC=C2C4CC(C)(C)CC[C@]4(C(=O)O[C@]4([C@@H]5OC(C)[C@H](O[C@@H]6OC[C@@H](O)C(O)C6O)C(O)C5O)OC(CO)[C@H](NC(=O)CCCCCNC(=O)COCCOCCOCC(=O)NCC(=O)N[C@H](C(=O)N[C@H](C(=O)O[C@@H](CO)C(=O)N[C@@H](C)C(=O)N5CCC[C@H]5C(=O)N[C@@H](CC(=O)O)C(=O)N[C@H](C(=O)N[C@@H](CCCNC(=N)N)C(=O)N5CCC[C@H]5C(=O)N[C@@H](C)C(=O)N5CCC[C@H]5C(=O)NCC(=O)N[C@@H](CO)C(=O)N[C@H](C(=O)N[C@@H](C)C(N)=O)C(C)O)C(C)O[C@H]5OC(CO)[C@H](O)C(O)C5NC(C)=O)C(C)O)C(C)C)C(O)C4O)C(O)CC23C)C1(C)C)C(C)C)C(=O)N[C@H](C(=O)N[C@@H](Cc1ccc(O)cc1)C(=O)N[C@@H](CCCCN)C(=O)N[C@@H](CC(=O)O)C(=O)N[C@H](C(=O)O)[C@@H](C)O)[C@@H](C)O (stereo partly drawn) [compound 11, PV-Echinocystic Acid Saponin-TnMUC1 Tri-Conjugate] | – | – | – | high levels
